Data from patent US20110201564A1, “SUBSTITUTED 7-SULFANYLMETHYL, 7-SULFINYLMETHYL AND 7-SULFONYLMETHYL INDOLES AND USE THEREOF” (BAYER SCHERING PHARMA AKTIENGESELLSCHAFT, priority 2008, published 2011).

Assays:
Format in all cases: cell-based
[1] = target: T1, human mineralocorticoid receptor (MR) (Homo sapiens, UniProt P08235); assay: Cellular in vitro assay, GAL4-MR chimera luciferase reporter in CHO K1 cells (inhibitory MR activity); conditions: antagonism vs aldosterone; CHO K1 GAL4-MR LBD luciferase reporter
T1 construct: expressed in transfected cells; host or cells: CHO K1
T1 sequence (P08235 734-984 limits assumed): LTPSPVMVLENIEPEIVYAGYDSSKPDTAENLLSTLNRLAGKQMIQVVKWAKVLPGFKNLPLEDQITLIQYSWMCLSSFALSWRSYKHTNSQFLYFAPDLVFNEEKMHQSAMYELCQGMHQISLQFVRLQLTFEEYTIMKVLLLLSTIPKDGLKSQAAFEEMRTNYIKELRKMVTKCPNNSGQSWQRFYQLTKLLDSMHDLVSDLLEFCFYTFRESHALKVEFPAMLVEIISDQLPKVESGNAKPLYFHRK
From the text: (§1) 1. Cellular In Vitro Assay to Determine the Inhibitory MR Activity and MR Selectivity Compared with Other Steroid Hormone Receptors
(§2) Antagonists of the human mineralocorticoid receptor (MR) are identified, and the activity of the compounds described herein is quantified with the aid of a recombinant cell line. The cell is originally derived from a hamster ovary epithelial cell (Chinese Hamster Ovary, CHO K1, ATCC: American Type Culture Collection, VA 20108, USA).
(§3) An established chimera system in which the ligand-binding domains of human steroid hormone receptors are fused to the DNA-binding domain of the yeast transcription factor GAL4 is used in this CHO K1 cell line. The GAL4-steroid hormone receptor chimeras produced in this way are cotransfected and stably expressed with a reporter construct in the CHO cells.
(§4) To generate the GAL4-steroid hormone receptor chimeras, the GAL4 DNA-binding domain (amino acids 1-147) from the vector pFC2-dbd (from Stratagene) is cloned with the PCR-amplified ligand-binding domains of the mineralocorticoid receptor (MR, amino acids 734-985), of the progesterone receptor (PR, amino acids 680-933) and of the androgen receptor (AR, amino acids 667-919) into the vector pIRES2 (from Clontech). The reporter construct, which comprises five copies of the GAL4 binding site upstream of a thymidine kinase promoter, leads to expression of firefly luciferase (Photinus pyralis) after activation and binding of the GAL4-steroid hormone receptor chimeras by the respective specific agonists aldosterone (MR), dexamethasone (GR), progesterone (PR) and dihydrotestosterone (AR).
(§5) The MR, PR and AR cells are plated out in medium (Optimem, 2.5% FCS, 2 mM glutamine, 10 mM HEPES) in 96- (or 384- or 1536-)well microtiter plates on the day before the assay and are kept in a cell incubator (96% humidity, 5% v/v CO2, 37° C.). On the day of the assay, the substances to be tested are taken up in the abovementioned medium and added to the cells. About 10 to 30 minutes after addition of the test substances, the respective specific agonists of the steroid hormone receptors are added. After a further incubation time of 5 to 6 hours, the luciferase activity is measured with the aid of a video camera. The measured relative light units as a function of the substance concentration result in a sigmoidal stimulation curve. The IC50 values are calculated with the aid of the GraphPad PRISM computer program (Version 3.02).

[2] = target: T2, androgen receptor (AR) (Homo sapiens, UniProt P10275); assay: Cellular in vitro assay, GAL4-AR chimera luciferase reporter in CHO K1 cells (selectivity); conditions: antagonism vs dihydrotestosterone; CHO K1 GAL4-AR LBD luciferase reporter
T2 construct: of the androgen receptor (AR, amino acids 667-919); expressed in transfected cells; host or cells: CHO K1
T2 sequence (P10275 668-920): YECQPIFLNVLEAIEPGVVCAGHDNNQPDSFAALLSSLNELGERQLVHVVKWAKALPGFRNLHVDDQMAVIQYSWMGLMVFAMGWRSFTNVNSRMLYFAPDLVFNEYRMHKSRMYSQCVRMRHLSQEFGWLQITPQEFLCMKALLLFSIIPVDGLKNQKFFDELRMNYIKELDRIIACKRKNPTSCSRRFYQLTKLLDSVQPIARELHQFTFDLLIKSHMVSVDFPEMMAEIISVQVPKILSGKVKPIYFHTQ
From the text: as §1, §2, §3, §4, §5

[3] = target: T3, progesterone receptor (PR) (Homo sapiens, UniProt P06401); assay: Cellular in vitro assay, GAL4-PR chimera luciferase reporter in CHO K1 cells (selectivity); conditions: antagonism vs progesterone; CHO K1 GAL4-PR LBD luciferase reporter
T3 construct: of the progesterone receptor (PR, amino acids 680-933); expressed in transfected cells; host or cells: CHO K1
T3 sequence (P06401 680-933): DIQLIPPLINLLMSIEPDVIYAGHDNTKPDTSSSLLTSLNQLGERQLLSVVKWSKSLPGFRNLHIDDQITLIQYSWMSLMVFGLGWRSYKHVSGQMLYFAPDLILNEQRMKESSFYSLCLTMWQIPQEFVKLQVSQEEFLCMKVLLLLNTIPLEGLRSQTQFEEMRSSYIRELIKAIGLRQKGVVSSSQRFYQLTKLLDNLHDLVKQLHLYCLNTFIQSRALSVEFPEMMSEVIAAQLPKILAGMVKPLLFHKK
From the text: as §1, §2, §3, §4, §5

Row | IC50 [1] [µM] | IC50 [2] [µM] | IC50 [3] [µM] | SMILES
1 | 0.27 | 6.6 | 10 | CCC(CCO)(c1ccc(Cl)cc1)c1c[nH]c2c(CSC)cccc12 (stereo not shown) [Example 140, 3-(4-Chlorophenyl)-3-{7-[(methylsulfanyl)methyl]-1H-indol-3-yl}pentan-1-ol]
2 | 0.1 | 2.03 | 1.93 | CSCc1cc(F)cc2c(C(C)(c3ccc(Cl)cc3)C3CC3C#N)c[nH]c12 (stereo not shown) [Example 179, 2-[1-(4-Chlorophenyl)-1-{5-fluoro-7-[(methylsulfanyl)methyl]-1H-indol-3-yl}ethyl]cyclopropanecarbonitrile]
3 | 0.059 | 5.25 | 6.66 | CS(=O)(=O)Cc1cccc2c(C(c3ccc(Cl)cc3Cl)C3CC3(F)F)c[nH]c12 (single isomer, unassigned) [Example 325-2, 3-[(2,4-Dichlorophenyl)(2,2-difluorocyclopropyl)methyl]-7-[(methylsulfonyl)methyl]-1H-indole]
4 | 0.1 | 5.74 | 8.88 | C[S+]([O-])Cc1cccc2c(C(c3ccc(F)cc3)c3ccc(Cl)cc3F)c[nH]c12 (mixture of isomers) [Example 130, 3-[(4-Chloro-2-fluorophenyl)(4-fluorophenyl)methyl]-7-[(methylsulfinyl)methyl]-1H-indole]
5 | 0.4 | – | 6.9 | CS(=O)(=O)Cc1cccc2c(C(c3ccc(C(F)(F)F)cc3)C3CC3(F)F)c[nH]c12 (mixture of isomers) [Example 324, 3-{(2,2-Difluorocyclopropyl)[4-(trifluoromethyl)phenyl]methyl}-7-[(methylsulfonyl)methyl]-1H-indole]
6 | 0.077 | 1.94 | 5.78 | CSCc1cccc2c(C(C)(c3ccc(C(F)(F)F)cc3)C3CC3C#N)c[nH]c12 (stereo not shown) [Example 177, 2-(1-{7-[(Methylsulfanyl)methyl]-1H-indol-3-yl}-1-[4-(trifluoromethyl)phenyl]ethyl)cyclopropanecarbonitrile]
7 | 0.12 | 6.94 | 8.13 | C[S+]([O-])Cc1cccc2c(C(C)(c3ccc(Cl)cc3F)C3CC3)c[nH]c12 (mixture of isomers) [Example 124, 3-[1-(4-Chloro-2-fluorophenyl)-1-cyclopropylethyl]-7-[(methylsulfinyl)methyl]-1H-indole]
8 | 0.19 | – | 10 | C[S+]([O-])Cc1cccc2c(C(c3c(F)cc(Cl)cc3F)C3CC3)c[nH]c12 (mixture of isomers) [Example 238, 3-[(4-Chloro-2,6-difluorophenyl)(cyclopropyl)methyl]-7-[(methylsulfinyl)methyl]-1H-indole]
9 | 0.22 | 1.23 | 6.55 | CS(=O)(=O)Cc1cccc2c(C(c3ccc(F)cc3)c3ccc(Cl)cc3)c[nH]c12 (single isomer, unassigned) [Example 114-2, 3-[(4-Chlorophenyl)(4-fluorophenyl)methyl]-7-[(methylsulfonyl)methyl]-1H-indole]

Further lines, the molecule ahead of its results:

Row | SMILES | IC50 [1] [µM] | IC50 [2] [µM] | IC50 [3] [µM]
10 | CSCc1cc(F)cc2c(C3(C4CC4)CCc4cc(F)ccc43)c[nH]c12 (stereo not shown) [Example 94, 3-(1-Cyclopropyl-5-fluoro-2,3-dihydro-1H-inden-1-yl)-5-fluoro-7-[(methylsulfanyl)methyl]-1H-indole] | 0.16 | 1.6 | 3.14
11 | CS(=O)(=O)Cc1cccc2c(C(CCCC#N)c3ccc(Cl)cc3)c[nH]c12 (stereo not shown) [Example 70, 5-(4-Chlorophenyl)-5-{7-[(methylsulfonyl)methyl]-1H-indol-3-yl}pentanonitrile] | 0.25 | 9.66 | 7.75
12 | Cc1cc(Cl)ccc1C(CCO)c1c[nH]c2c(CS(C)(=O)=O)cccc12 (stereo not shown) [Example 26, 3-(4-Chloro-2-methylphenyl)-3-{7-[(methylsulfonyl)methyl]-1H-indol-3-yl}propan-1-ol] | 0.05 | 2.23 | 2.32
13 | C[S+]([O-])Cc1cc(F)cc2c(C(CCC#N)c3ccc(Cl)cc3Cl)c[nH]c12 (mixture of isomers) [Example 82, 4-(2,4-Dichlorophenyl)-4-{5-fluoro-7-[(methylsulfinyl)methyl]-1H-indol-3-yl}butanonitrile] | 0.21 | 7.53 | 5.81
14 | CS(=O)(=O)Cc1cccc2c(C(CCC#N)c3ccc(Cl)cc3Cl)c[nH]c12 (stereo not shown) [Example 62, 4-(2,4-Dichlorophenyl)-4-{7-[(methylsulfonyl)methyl]-1H-indol-3-yl}butanonitrile] | 0.06 | 7.09 | 12.8
15 | C[S+]([O-])Cc1cccc2c(C(CCC#N)c3ccc(Cl)cc3)c[nH]c12 (single isomer, unassigned) [Example 78-4, 4-(4-Chlorophenyl)-4-{7-[(methylsulfinyl)methyl]-1H-indol-3-yl}butanonitrile] | 0.15 | 8.89 | 7.91
16 | CS(=O)(=O)Cc1c(F)ccc2c(C(CCC#N)c3ccc(Cl)cc3)c[nH]c12 (stereo not shown) [Example 71, 4-(4-Chlorophenyl)-4-{6-fluoro-7-[(methylsulfonyl)methyl]-1H-indol-3-yl}butanonitrile] | 0.32 | 3.99 | 4.47
17 | CCC(CCC#N)(c1ccc(Cl)cc1)c1c[nH]c2c(CS(C)(=O)=O)cccc12 (single isomer, unassigned) [Enantiomer 172-1, 4-(4-Chlorophenyl)-4-{7-[(methylsulfonyl)methyl]-1H-indol-3-yl}hexanonitrile] | 0.007 | 3.8 | 4.31
18 | CS(=O)(=O)Cc1cccc2c(C3(C4CC4)CCc4cc(F)ccc43)c[nH]c12 (single isomer, unassigned) [Example 107-1, 3-(1-Cyclopropyl-5-fluoro-2,3-dihydro-1H-inden-1-yl)-7-[(methylsulfonyl)methyl]-1H-indole] | 0.02 | 2.16 | 9.16
19 | CS(=O)(=O)Cc1cccc2c(C(CCC#N)c3ccc4ccccc4c3)c[nH]c12 (stereo not shown) [Example 69, 4-{7-[(Methylsulfonyl)methyl]-1H-indol-3-yl}-4-(naphthalen-2-yl)butanonitrile] | 0.42 | 5.22 | 6.59
20 | CC(c1ccc(Cl)cc1)(c1c[nH]c2c(CS(C)(=O)=O)cccc12)C1CC1C#N (stereo not shown) [Example 106, 2-[1-(4-Chlorophenyl)-1-{7-[(methylsulfonyl)methyl]-1H-indol-3-yl}ethyl]cyclopropanecarbonitrile] | 0.04 | 5.31 | 11.7
21 | CC(c1ccc(Cl)cc1F)(c1c[nH]c2c(CS(C)(=O)=O)cccc12)C1CC1 (single isomer, unassigned) [Example 111-1, 3-[1-(4-Chloro-2-fluorophenyl)-1-cyclopropylethyl]-7-[(methylsulfonyl)methyl]-1H-indole] | 0.03 | 2.52 | 4.5
